Data: patent US8558011B2, “Cold menthol receptor-1 antagonists” (Janssen Pharmaceutica, NV, priority 2010, dated 2013)
Values joined by “and” are separate entries in the source; they are usually repeats but may differ in a detail not shown here. Equal values may be shown once.

Molecular target: T1, canine TRPM8 (Canis lupus familiaris, UniProt Q1A7N1)
T1 construct: expressed in transfected cells
Experiment: In Vitro Canine TRPM8 Functional Assay (Ca2+-sensitive fluorescent dye, icilin activation, FLIPR/FDSS)
Format: cell-based
Conditions: HEK293 cells stably expressing canine TRPM8, icilin activation; for IC50: eight-point dose-response; for % I (1 μM): compound at 1 μM; for % I (0.5 μM): compound at 0.5 μM
Procedure: The functional activity of compounds of Formula (I) was determined by measuring changes in intracellular calcium concentration using a Ca^2+-sensitive fluorescent dye. The changes in fluorescent signal were monitored by a fluorescence plate reader, either a FLIPR™ (Molecular Devices) or FDSS (Hamamatsu).
HEK293 cells stably expressing canine TRPM8 were routinely grown as monolayers in Dulbecco's minimum essential medium supplemented with 10% FBS, 1 mM L-glutamine, 100 units/mL penicillin, 100 ug/mL streptomycin and 400 μg/mL G418. Cells were maintained in 5% CO2 at 37° C. At 24 hrs prior to assay, cells were seeded in clear-base poly-D-lysine coated 384-well plates (BD Biosciences, NJ, USA) at a density of 5,000 cells per well in culture medium and grown overnight in 5% CO2 at 37° C. On assay day, growth media was removed and cells were loaded with Calcium 3 Dye (Molecular Devices) for 35 min at 37° C., under 5% CO2 and then for 25 min at room temperature and atmosphere. Subsequently, cells were tested for agonist-induced increases in intracellular Ca^2+ levels using FLIPR™ or FDSS. Cells were challenged with a compound of Formula (I) (at varying concentrations) and intracellular Ca^2+ was measured for 5 min prior to the addition of icilin to all wells to achieve a final concentration which produces approximately an 80% maximal response.
Basal FI was subtracted prior to normalizing data to percent of maximal response. Curves were generated using the average of quadruplicate wells for each data point, were analyzed using nonlinear regression of either sigmoidal dose response or sigmoidal dose response (variable slope). Finally, the EC50 and IC50 values were calculated with the best-fit dose curve determined by GraphPad Prism.

T1 sequence (Q1A7N1 1-1104): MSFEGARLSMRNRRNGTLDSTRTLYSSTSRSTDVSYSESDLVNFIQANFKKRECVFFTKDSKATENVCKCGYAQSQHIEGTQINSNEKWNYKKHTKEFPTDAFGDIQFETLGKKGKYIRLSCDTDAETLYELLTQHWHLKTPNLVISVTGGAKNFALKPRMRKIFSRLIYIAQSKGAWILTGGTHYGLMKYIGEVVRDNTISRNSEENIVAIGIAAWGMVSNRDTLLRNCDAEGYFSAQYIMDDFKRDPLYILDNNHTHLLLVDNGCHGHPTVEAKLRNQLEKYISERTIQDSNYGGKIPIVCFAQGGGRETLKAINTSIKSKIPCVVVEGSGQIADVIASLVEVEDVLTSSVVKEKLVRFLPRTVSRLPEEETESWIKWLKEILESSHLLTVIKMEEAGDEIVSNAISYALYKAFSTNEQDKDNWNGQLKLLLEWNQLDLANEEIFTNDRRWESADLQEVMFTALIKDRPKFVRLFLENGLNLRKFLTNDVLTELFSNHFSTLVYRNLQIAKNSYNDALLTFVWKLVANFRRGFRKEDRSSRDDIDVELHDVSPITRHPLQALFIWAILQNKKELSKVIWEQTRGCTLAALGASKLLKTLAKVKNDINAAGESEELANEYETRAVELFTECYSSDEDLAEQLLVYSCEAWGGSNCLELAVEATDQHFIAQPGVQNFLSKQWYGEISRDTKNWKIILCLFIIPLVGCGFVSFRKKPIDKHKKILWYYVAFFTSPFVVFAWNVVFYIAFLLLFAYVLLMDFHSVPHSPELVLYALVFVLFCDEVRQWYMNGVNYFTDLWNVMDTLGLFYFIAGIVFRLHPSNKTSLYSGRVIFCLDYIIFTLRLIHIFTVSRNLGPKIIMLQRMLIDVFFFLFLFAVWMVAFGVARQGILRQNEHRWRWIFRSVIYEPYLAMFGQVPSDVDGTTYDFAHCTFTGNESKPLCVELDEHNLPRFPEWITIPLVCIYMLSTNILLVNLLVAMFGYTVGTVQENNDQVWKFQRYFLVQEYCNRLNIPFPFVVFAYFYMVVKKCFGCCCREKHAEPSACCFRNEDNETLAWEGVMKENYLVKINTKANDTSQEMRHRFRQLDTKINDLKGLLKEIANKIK

Structure (SMILES) | IC50 | % I (1 μM) | % I (5 μM) (compound at 5 μM) [%] | % I (0.5 μM)
CCOP(=O)(OCC)C(Cc1cccc(F)c1F)c1sc2ccccc2c1C (racemic) [Cpd 10] | 43 nM | 100% |  | 
Cc1c(C(Cc2ccc(F)c(F)c2)P(=O)(OC(C)C)OC(C)C)oc2ccccc12 (racemic) [Cpd 11] | 43 nM and 47 nM | 99% and 103% |  | 
CC(C)OP(=O)(OC(C)C)C(Cc1ccc(F)c(F)c1)c1sc2ccccc2c1C(C)C (racemic) [Cpd 19] | 68 nM | 100% |  | 
CCOP(=O)(OCC)C(Cc1cccc(Cl)c1F)c1sc2ccccc2c1C (racemic) [Cpd 23] | 96 nM | 100% |  | 
CCOP(=O)(OCC)C(Cc1ccccc1C)c1sc2ccccc2c1C (racemic) [Cpd 26] | 108 nM | 100% |  | 
CCOP(=O)(OCC)C(Cc1ccc(F)cc1Cl)c1sc2ccccc2c1C (racemic) [Cpd 27] | 110 nM | 99% |  | 
CCOP(=O)(OCC)C(Cc1cc(F)cc(F)c1Cl)c1sc2ccccc2c1C (racemic) [Cpd 28] | 110 nM | 100% |  | 
CCOP(=O)(OCC)C(Cc1cccc(Cl)c1Cl)c1sc2ccccc2c1C (racemic) [Cpd 35] | 125 nM | 100% |  | 
CCOP(=O)(OCC)C(Cc1cccc(C(F)(F)F)c1F)c1sc2ccccc2c1C (racemic) [Cpd 37] | 127 nM | 100% |  | 
CC(C)OP(=O)(OC(C)C)C(Cc1ccc(F)c(F)c1)c1sc2ccccc2c1C1CCCC1 (racemic) [Cpd 38] | 140 nM | 99% |  | 
CCOP(=O)(OCC)C(Cc1cccc(C(F)(F)F)c1)c1cc2ccccc2s1 (racemic) [Cpd 39] | 141 nM | 100% |  | 
CCOP(=O)(OCC)C(Cc1ccc2ccccc2c1)c1sc2ccccc2c1C (racemic) [Cpd 46] | 167 nM | 99% |  | 
CCOP(=O)(OCC)C(Cc1cc(Cl)ccc1Cl)c1sc2ccccc2c1C (racemic) [Cpd 47] | 167 nM | 100% |  | 
CCOP(=O)(OCC)C(Cc1ccccc1Cl)c1sc2ccccc2c1C (racemic) [Cpd 48] | 169 nM | 100% |  | 
CCOP(=O)(OCC)C(Cc1ccc(F)c(F)c1)c1sc2cccc(F)c2c1C (centres unmarked) [Cpd 3, [2-(3,4-Difluoro-phenyl)-1-(4-fluoro-3-methyl-benzo[b]-thiophene-2-yl)-ethyl]-phosphonic acid diethyl ester] |  | 100% |  | 
CCOP(=O)(OCC)C(Cc1ccc(F)c(F)c1)c1sc2c(F)cccc2c1C (centres unmarked) [Cpd 8, [2-(3,4-Difluoro-phenyl)-1-(7-fluoro-3-methyl-benzo[b-]thiophene-2-yl)-ethyl]-phosphonic acid diethyl ester] |  | 100% |  | 
CCOP(=O)(OCC)C(Cc1ccc(F)c(F)c1)c1oc2ccccc2c1C (centres unmarked) [Cpd 9, [2-(3,4-Difluoro-phenyl)-1-(3-methyl-benzofuran-2-yl)-ethyl]-phosphonic acid diethyl ester] |  | 100% |  | 
CCOP(=O)(OCC)C(Cc1ccc(F)c(F)c1)c1sc2cc(F)ccc2c1C (centres unmarked) [Cpd 16, [2-(3,4-Difluoro-phenyl)-1-(6-fluoro-3-methyl-benzo[b]-thiophene-2-yl)-ethyl]-phosphonic acid diethyl ester] |  | 100% |  | 
CCOP(=O)(OCC)C(Cc1ccc(Cl)c(Cl)c1)c1sc2ccccc2c1Br (centres unmarked) [Cpd 24, [1-(3-Bromo-benzo[b]thiophen-2-yl)-2-(3,4-dichloro-phenyl)-ethyl]-phosphonic acid diethyl ester] |  | 100% |  | 
CCOP(=O)(OCC)C(Cc1ccc(F)c(F)c1)c1sc2ccc(F)cc2c1C (centres unmarked) [Cpd 45, [2-(3,4-Difluoro-phenyl)-1-(5-fluoro-3-methyl-benzo[b]thiophene-2-yl)-ethyl]-phosphonic acid diethyl ester] |  | 100% |  | 
CCOP(=O)(OCC)C(Cc1ccc(F)c(F)c1)c1sc2cccc(Cl)c2c1C (centres unmarked) [Cpd 65, [1-(4-Chloro-3-methyl-benzo[b]thiophen-2-yl)-2-(3,4-difluoro-phenyl)-ethyl]-phosphonic acid diethyl ester] |  | 100% |  | 
CCOP(=O)(OCC)C(Cc1ccc(Cl)c(Cl)c1)c1cc2ccccc2s1 (centres unmarked) [Cpd 78, [1-Benzo[b]thiophen-2-yl-2-(3,4-dichloro-phenyl)-ethyl]-phosphonic acid diethyl ester] |  | 95% |  | 
CCOP(=O)(OCC)C(C)(Cc1ccc(F)c(F)c1)c1sc2ccccc2c1C (centres unmarked) [Cpd 79, [2-(3,4-Difluoro-phenyl)-1-methyl-1-(3-methyl-benzo[b]-thiophen-2-yl)-ethyl]-phosphonic acid diethyl ester] |  | 88% |  | 
CCOP(=O)(Cc1cc2ccccc2s1)OCc1c(Cl)cccc1Cl (centres unmarked) [Cpd 94, Benzo[b]thiophen-2-ylmethyl-phosphonic acid 2,6-dichloro-benzyl ester ethyl ester] |  | 79% |  | 
CCOP(=O)(Cc1cc2ccccc2s1)OCc1ccccc1C (centres unmarked) [Cpd 104, Benzo[b]thiophen-2-ylmethyl-phosphonic acid ethyl ester 2-methyl-benzyl ester] |  | 53% |  | 

Structure (SMILES) | IC50 | % I (1 μM) | % I (5 μM) (compound at 5 μM) [%] | % I (0.5 μM)
CCOP(=O)(Cc1cc2ccccc2s1)OCc1ccccc1Cl (centres unmarked) [Cpd 105] | 1010 nM | 48% | 100 | 
CCOP(=O)(Cc1cc2ccccc2s1)OCc1ccccc1F (centres unmarked) [Cpd 109, Benzo[b]thiophen-2-ylmethyl-phosphonic acid ethyl ester 2-fluoro-benzyl ester] |  | 17% |  | 
CCOP(=O)(OCC)C(Cc1ccc(F)c(F)c1)c1sc2ncccc2c1Br (centres unmarked) [Cpd 132, 1-[(3-Bromo-thieno[2,3-b]pyridin-2-yl)-2-(3,4-difluoro-phenyl)-ethyl]-phosphonic acid diethyl ester] |  | 102% |  | 
CCOP(=O)(OCC)C(Cc1cccc(Cl)c1F)c1sc2ccccc2c1Br (centres unmarked) [Cpd 143] | 67 nM |  |  | 101%
CCOP(=O)(OCC)C(Cc1ccc(C(F)(F)F)c(F)c1)c1sc2ccccc2c1Br (centres unmarked) [Cpd 144] | 58 nM |  |  | 101%
CCOP(=O)(OCC)C(Cc1cccc(OC(F)(F)F)c1)c1sc2ccccc2c1Br (centres unmarked) [Cpd 145] | 119 nM and 116 nM |  |  | 103, % and 102%
CCOP(=O)(OCC)C(Cc1cc(C(F)(F)F)ccc1F)c1sc2ccccc2c1Br (centres unmarked) [Cpd 146] | 100 nM |  |  | 103%
CCOP(=O)(OCC)C(Cc1ccccc1Cl)c1sc2ccccc2c1Br (centres unmarked) [Cpd 147] | 125 nM |  |  | 103%
CCOP(=O)(OCC)C(Cc1cc(C(F)(F)F)ccc1Cl)c1sc2ccccc2c1Br (centres unmarked) [Cpd 148] | 172 nM |  |  | 103%
CCOP(=O)(OCC)C(Cc1ccc(OC(F)(F)F)c(Cl)c1)c1sc2ccccc2c1Br (centres unmarked) [Cpd 149] | 60 nM |  |  | 103%
CCOP(=O)(OCC)C(Cc1ccc(C(F)(F)F)cc1F)c1sc2ccccc2c1Br (centres unmarked) [Cpd 150] | 90 nM |  |  | 103%
CCOP(=O)(OCC)C(Cc1cccc(C(F)(F)F)c1Cl)c1sc2ccccc2c1Br (centres unmarked) [Cpd 151] | 120 nM |  |  | 103%
CCOP(=O)(OCC)C(Cc1ccc(OC)c(C(F)(F)F)c1)c1sc2ccccc2c1Br (centres unmarked) [Cpd 152] | 54 nM and 50 nM |  |  | 102% and 92%
CCOP(=O)(OCC)C(Cc1ccc(SC(F)(F)F)cc1)c1sc2ccccc2c1Br (centres unmarked) [Cpd 153] | 43 nM |  |  | 103%
CCOP(=O)(OCC)C(Cc1ccc(C(F)(F)F)cc1)c1sc2ccccc2c1Br (centres unmarked) [Cpd 154] | 27 nM |  |  | 103%
CCOP(=O)(OCC)C(Cc1ccc(F)c(OC)c1)c1sc2ccccc2c1Br (centres unmarked) [Cpd 156] |  |  |  | 103%
COc1cc(CC(c2sc3ccccc3c2Br)P(=O)(OC(C)C)OC(C)C)ccc1F (centres unmarked) [Cpd 157] |  |  |  | 103%
CCOP(=O)(OCC)C(Cc1ccc(OC)c(F)c1)c1sc2ccccc2c1Br (centres unmarked) [Cpd 158] | 59 nM |  |  | 101%
COc1ccc(CC(c2sc3ccccc3c2Br)P(=O)(OC(C)C)OC(C)C)cc1F (centres unmarked) [Cpd 159] | 36 nM |  |  | 103%
CCOP(=O)(OCC)C(Cc1c(F)c(F)c(OC)c(F)c1F)c1sc2ccccc2c1Br (centres unmarked) [Cpd 160] | 60 nM |  |  | 87%
COc1c(F)c(F)c(CC(c2sc3ccccc3c2Br)P(=O)(OC(C)C)OC(C)C)c(F)c1F (centres unmarked) [Cpd 161] | 19 nM |  |  | 103%
CCOP(=O)(OCC)C(Cc1cccc(OC)c1F)c1sc2ccccc2c1Br (centres unmarked) [Cpd 162] | 32 nM |  |  | 103%
COc1ccc(CC(c2sc3ccccc3c2Br)P(=O)(OC(C)C)OC(C)C)c(F)c1 (centres unmarked) [Cpd 163] | 20 nM |  |  | 103%
CCOP(=O)(OCC)C(Cc1cc(OC)c(Cl)cc1F)c1sc2ccccc2c1Br (centres unmarked) [Cpd 164] | 82 nM |  |  | 94%
COc1cc(CC(c2sc3ccccc3c2Br)P(=O)(OC(C)C)OC(C)C)c(F)cc1Cl (centres unmarked) [Cpd 165] | 86 nM |  |  | 102%
